Measured values published in US20180271888A1, “COMPOSITIONS AND METHODS FOR PARKINSON'S DISEASE THERAPY” (priority 2017, published 2018).
Like-named read-outs stand apart in the source and are kept apart here.

Columns and labels:
[1] = tested on: TH; experiment: TH expression in striatum after 6-OHDA lesioning; type: in vivo, mouse; conditions: 6-OHDA 4 mg/mL, 2 μL unilateral, lesioned vs unlesioned side
Protocol: (§1) Protein samples of 50 lg ran on 10% sodium dodecyl sulfate-polyacrylamide gel electrophoresis gels and transferred onto polyvinylidine diflouride membranes using semi-dry transfer method (Trans turbo blot; BioRad Laboratories, Hercules, Calif., USA). Striatal samples from WT and P2X4R KO mice were made to run on the same gel and transferred onto the same membrane. Nonspecific binding was blocked by incubation in 5% non-fat dry milk, followed by incubation with primary antibodies overnight at 4° C. The antibodies used were rabbit anti-TH (1:5000), mouse anti-DAT (1:1000), rabbit anti-D2 receptor (1:1000), rabbit anti-DARPP-32 (1:1000) (Millipore), rabbit anti-D1 receptor (1:500; SantaCruz biotechnology, Santacruz, Calif., USA), mouse anti-total ERK 1/2 (1:1000), rabbit anti-total CREB (1:1000) (Cell Signaling Technology, Beverly, Mass., USA), mouse anti-β-actin (1:20 000; Sigma-Aldrich), and mouse anti-α-tubulin (1:10 000; Millipore). The antibodies for phospho proteins included rabbit antiphospho-Thr34-DARPP-32 (1:400; Millipore), rabbit anti-phospho-Ser133-CREB (1:500), rabbit anti-diphospho-Thr202/Tyr204-ERK 1/2 (1:500) (Cell Signaling Technology). Secondary antibodies included goat anti-mouse and goat anti-rabbit antibodies (1:10 000; BioRad Laboratories). […] Protein quantification was carried out by optical densitometry using ImageJ software (NIH, Bethesda, Md., USA). […]

[2] = cited from earlier work
[3] = tested on: CREB; experiment: Western immunoblotting of total and phosphorylated CREB in striatum after IVM; type: in vivo, mouse; conditions: effect of IVM treatment 5 mg/kg
Protocol: (§2) The dorsal and ventral striata were dissected from P2X4R KO and WT mice following killing with CO2 asphyxiation. […] The dorsal and ventral striata were dissected out as per the neuroanatomical landmarks described in the mouse brain atlas (Franklin, B. J. and Paxinos, G. (2007) The Mouse Brain in Stereotaxic Coordinates. Elsevier Academic Press, Amsterdam). The brain tissues were homogenized in a buffer containing 50 mM Tris-HCl pH (8.0), 150 mM NaCl, 1 mM EDTA, 0.1% sodium dodecyl sulfate, 1/100 dilution proteinases inhibitor cocktail (Millipore, Temecula, Calif., USA), and protein content was determined using bicinchoninic acid assay kit (Thermo Scientific, Rockford, Ill., USA). Homogenates were treated with a cocktail of phosphatase inhibitors (1 mM sodium pyrophosphate, 10 mM sodium fluoride, 0.5 mM sodium orthovandate, 10 mM β-glycerol phosphate, 1 μM microcysteine LR) (Sigma-Aldrich) for detection of phosphoproteins.
as §1, with “Millipore).” for “Millipore). The antibodies for phospho proteins included rabbit antiphospho-Thr34-DARPP-32 (1:400; Millipore), rabbit anti-phospho-Ser133-CREB (1:500), rabbit anti-diphospho-Thr202/Tyr204-ERK 1/2 (1:500) (Cell Signaling Technology). Secondary antibodies included goat anti-mouse and goat anti-rabbit antibodies (1:10 000; BioRad Laboratories).”
(§3) For the western blotting analysis, the average of densitometry values of WT striatal samples was used to arbitrarily normalize WT samples to 1 and the P2X4R KO striatal samples were normalized by dividing each densitometry value by the average of WT samples. […] Normalized density of proteins was expressed as mean±SEM. Phosphorylation was calculated as ratio of normalized values of phosphorylated form to total form of protein. DA levels were expressed as ng/mg of protein content. […] Pharmacological studies for motor behavior and sensorimotor gating were analyzed by two-way repeated measures ANOVA with time/PPI intensity and genotype/treatment as within and between-subjects variability, respectively, followed by Bonferroni post hoc test for multiple comparisons. […]

[4] = tested on: ERK 1/2; experiment: Western immunoblotting of total and phosphorylated ERK 1/2 in striatum after IVM; type: in vivo, mouse
Protocol: as §2
as §1, with “Millipore).” for “Millipore). The antibodies for phospho proteins included rabbit antiphospho-Thr34-DARPP-32 (1:400; Millipore), rabbit anti-phospho-Ser133-CREB (1:500), rabbit anti-diphospho-Thr202/Tyr204-ERK 1/2 (1:500) (Cell Signaling Technology). Secondary antibodies included goat anti-mouse and goat anti-rabbit antibodies (1:10 000; BioRad Laboratories).”
as §3

[5] = tested on: 6-OHDA lesioned WT and P2X4R KO mice; experiment: L-DOPA-induced rotational behavior in the 6-OHDA model of DA depletion (Example 1); type: in vivo, mouse
Protocol: Mice were treated with desipramine hydrochloride (25 mg/kg, i.p.) (Sigma-Aldrich) 30 min prior to surgery to prevent concurrent damage of noradrenergic pathways by 6-OHDA. Mice were anesthetized with avertin ([…], i.p.) and placed in the stereotaxic apparatus. Two μL of freshly prepared 6-OHDA bromide salt (4 mg/mL in 0.2% ascorbic acid and 0.9% saline; Sigma-Aldrich) was unilaterally infused into left median forebrain bundle (from Bregma point: 1.2 mm posterior, 1.1 mm lateral, 5 mm ventral) (Franklin, B. J. and Paxinos, G. (2007) The Mouse Brain in Stereotaxic Coordinates. Elsevier Academic Press, Amsterdam) at a rate of 0.5 μL/min using a 10 μL Hamilton syringe and a microlitre syringe pump. The injection cannula was left in place for 3-5 min to prevent reflux and ensure complete absorption. Post-operative procedures involved daily subcutaneous (s.c.) injections with sucrose (5% w/v in saline) and warming on a heating pad for 2 weeks.
Mice were subjected to behavioral testing 3 weeks after 6-OHDA lesioning surgery. Mice were placed in a plastic cylinder (318 mm in diameter) with a video camera mounted above it. Baseline rotational behavior was established by saline injections which causes the mouse to rotate toward the lesioned side with lesser DA activity (ipsilateral rotations). L-DOPA (5 mg/kg, s.c.) was administered 5 min prior to behavioral testing and the number of contralateral and ipsilateral rotations were counted in every 10-minute interval for a total period of 90 min.
For the western blotting analysis, the average of densitometry values of WT striatal samples was used to arbitrarily normalize WT samples to 1 and the P2X4R KO striatal samples were normalized by dividing each densitometry value by the average of WT samples. Normalization of the two genotypes was done within the same membrane and presented as fold change of P2X4R KO versus WT in that membrane. For D1, D2, DARPP-32, ERK 1/2, and CREB immunoblotting; WT and P2X4R KO mice were generated in separate cohorts. The normalization of P2X4R KO to WT samples was done within the same cohort followed by combining data from two cohorts for analyses. […] Normalized density of proteins was expressed as mean±SEM. Phosphorylation was calculated as ratio of normalized values of phosphorylated form to total form of protein. DA levels were expressed as ng/mg of protein content. Unpaired Student t-test was used for analyzing the differences in protein densities and DA levels between WT and P2X4R KO groups. […] Pharmacological studies for motor behavior and sensorimotor gating were analyzed by two-way repeated measures ANOVA with time/PPI intensity and genotype/treatment as within and between-subjects variability, respectively, followed by Bonferroni post hoc test for multiple comparisons. Significance was set at p<0.05. All data were analyzed using GraphPad Prism software (San Diego, Calif., USA).

[6] = tested on: WT and P2X4R KO mice; conditions: Bortolato et al. 2013, cited from earlier work
[7] = tested on: DARPP-32; experiment: Western immunoblotting of total and phosphorylated DARPP-32 in striatum after IVM; type: in vivo, mouse
Protocol: as §2
Protein samples of 50 lg ran on 10% sodium dodecyl sulfate-polyacrylamide gel electrophoresis gels and transferred onto polyvinylidine diflouride membranes using semi-dry transfer method (Trans turbo blot; BioRad Laboratories, Hercules, Calif., USA). Striatal samples from WT and P2X4R KO mice were made to run on the same gel and transferred onto the same membrane. Nonspecific binding was blocked by incubation in 5% non-fat dry milk, followed by incubation with primary antibodies overnight at 4° C. The antibodies used were rabbit anti-TH (1:5000), mouse anti-DAT (1:1000), rabbit anti-D2 receptor (1:1000), rabbit anti-DARPP-32 (1:1000) (Millipore), rabbit anti-D1 receptor (1:500; SantaCruz biotechnology, Santacruz, Calif., USA), mouse anti-total ERK 1/2 (1:1000), rabbit anti-total CREB (1:1000) (Cell Signaling Technology, Beverly, Mass., USA), mouse anti-β-actin (1:20 000; Sigma-Aldrich), and mouse anti-α-tubulin (1:10 000; Millipore). The antibodies for phospho proteins included rabbit antiphospho-Thr34-DARPP-32 (1:400; Millipore), rabbit anti-phospho-Ser133-CREB (1:500), rabbit anti-diphospho-Thr202/Tyr204-ERK 1/2 (1:500) (Cell Signaling Technology). Secondary antibodies included goat anti-mouse and goat anti-rabbit antibodies (1:10 000; BioRad Laboratories). Bands were visualized using chemiluminescence method (Clarity western plus enhanced chemiluminescence substrate; BioRad Laboratories) followed by exposure to HyBlot autoradiography films (Denville Scientific, Metuchen, N.J., USA). Protein quantification was carried out by optical densitometry using ImageJ software (NIH, Bethesda, Md., USA). Protein densities were normalized to β-actin or α-tubulin levels.
as §3

[8] = tested on: WT and P2X4R KO mice; experiment: Prepulse inhibition (PPI) of acoustic startle reflex; type: in vivo, mouse
Protocol: Acoustic startle reflex and PPI were tested as previously described (Wyatt, L. R. et al. (2013) Neuropsychopharmacology 38:1993-2002). The apparatus used for detection of startle reflex (San Diego Instruments, San Diego, Calif., USA) consisted of a standard cage placed in sound attenuated chambers with fan ventilation. Each cage consisted of a Plexiglass cylinder of 3 cm diameter, mounted on piezoelectric accelerometric platform connected to an analog-digital converter. Background noise and acoustic bursts were conveyed by two separate speakers, each one oriented appropriately so as to produce a variation in sound within 1 dB across the startle cage. Both speakers and startle cages were connected to the main PC, which detected and analyzed all chamber variables with Startle software (San Diego Instruments). Before each testing session, acoustic stimuli were calibrated via a digital sound level meter.
During the baseline session, mice were exposed to background noise of 70 dB and, after an acclimatization period of 5 min, were presented with 12 40 ms trials of 115 dB interposed with three trials of a 82 dB pre-stimulus preceding the 115 dB by 100 ms. […] Delta PPI (APPI) was calculated as mean startle amplitude for pulse alone trials—(mean startle amplitude for prepulse trial). […]
as §3

[9] = ventral striatum, effect of IVM treatment 5 mg/kg
[10] = ventral striatum, main effect of IVM treatment 5 mg/kg, treatment×genotype interaction significant (p<0.05)

NCCc1cc(O)c(O)cc1O [6-OHDA, 6-hydroxydopamine]
reduced TH expression in the striatum ([1]; P2X4R KO mice): 96.3% | reduced TH expression in the striatum ([1]; WT mice): 95.7%

C[C@@](Cc1ccc(O)c(O)c1)(NN)C(=O)O.O [Carbidopa, N-amino-α-methyl-3-hydroxy-L-tyrosine monohydrate]
solubility in water [2]: slightly soluble

CC[C@H](C)[C@H]1O[C@]2(CC[C@@H]1C)C[C@@H]1C[C@@H](C/C=C(\C)[C@@H](O[C@H]3C[C@H](OC)[C@@H](O[C@H]4C[C@H](OC)[C@@H](O)[C@H](C)O4)[C@H](C)O3)[C@@H](C)/C=C/C=C3\CO[C@@H]4[C@H](O)C(C)=C[C@@H](C(=O)O1)[C@]34O)O2 [IVM, ivermectin]
CREB phosphorylation ([3]; dorsal striatum): no significant effect | total CREB levels ([3]; dorsal striatum): no significant effect | total CREB levels ([3]; ventral striatum): no significant effect | CREB phosphorylation ([3]; ventral striatum, interaction trended toward significance): no significant effect | ERK 1/2 phosphorylation ([4]; dorsal striatum, IVM 5 mg/kg, both genotypes (independent of P2X4R function)): increased | total ERK 1/2 levels ([4]; dorsal striatum, main effect of IVM treatment, treatment×genotype interaction significant): no significant effect | ERK 1/2 phosphorylation [4, 9]: no significant effect | total ERK 1/2 levels [4, 9]: no significant effect | L-DOPA induced motor behavior (contralateral rotations) ([5]; 6-OHDA P2X4R KO mice, IVM 5 mg/kg + L-DOPA 5 mg/kg vs L-DOPA alone, during the 5-15 min interval): significant increase | number of L-DOPA-induced rotations (contralateral) ([5]; 6-OHDA WT mice, IVM 5 mg/kg i.p. 8 h prior + L-DOPA 5 mg/kg s.c. vs L-DOPA alone, significant 5-65 min): significantly increased | rotations induced by IVM alone (ipsilateral) ([5]; 6-OHDA WT mice, IVM 5 mg/kg i.p. 8 h prior, average for 2 hours, SEM ±2, significant vs sham controls): 12 rotations | PPI (effect of IVM) ([6]; P2X4R KO mice): attenuated response | PPI (effect of IVM) ([6]; WT C57BL/6J mice): PPI disruption | DARPP-32 phosphorylation ([7]; dorsal striatum, P2X4R KO mice, IVM 5 mg/kg i.p., 8 h post-drug): did not increase | DARPP-32 phosphorylation ([7]; dorsal striatum, WT mice, IVM 5 mg/kg i.p., 8 h post-drug, vs vehicle, Bonferroni p<0.05): significant increase | total DARPP-32 levels ([7]; dorsal striatum, main effect of IVM treatment (5 mg/kg i.p.), treatment×genotype interaction significant): no significant effect | DARPP-32 phosphorylation [7, 10]: no significant effect | total DARPP-32 levels [7, 10]: no significant effect

N[C@@H](Cc1ccc(O)c(O)c1)C(=O)O [L-DOPA, L-3,4-didhydrophenylalanine]
rotational behavior with L-DOPA treatment ([5]; L-DOPA 5 mg/kg s.c., 6-OHDA lesioned WT and P2X4R KO mice): exhibited contralateral rotations | L-DOPA-induced contralateral turns, P2X4R KO compared to WT mice ([5]; L-DOPA 5 mg/kg, significant during the 45-55 min interval): significantly fewer

CCN1CCC[C@H]1CNC(=O)c1c(O)c(Cl)cc(Cl)c1OC [raclopride]
PPI of acoustic startle reflex ([8]; P2X4R KO mice vs saline, SCH-23390 1 mg/kg i.p. or raclopride 3 mg/kg i.p., 10 min prior, significant at PPI 6 and PPI 12): significantly enhanced | startle amplitude ([8]; P2X4R KO mice, SCH-23390 1 mg/kg or raclopride 3 mg/kg): without any changes | PPI function ([8]; WT mice, SCH-23390 1 mg/kg or raclopride 3 mg/kg i.p.): no significant changes
